Measurements taken from patent publication US4740233A, “Substituted 1,2,4-triazolo[1,5-a]-pyrimidine-2-sulfonamides and compositions and methods of controlling undesired vegetation and suppressing the nitrification of ammonium nitrogen in soil” (The Dow Chemical Company, priority 1986, dated 1988).

Key:
[1] = tested on: annual morning glory; experiment: Preemergent control of plant species; format: in vivo, Ipomoea spp.; conditions: Ipomoea, pre-emergence, 336 h; 0.25 lb/acre; read-out: percent preemergent control
In short: (§1)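 Growth reduction relative to untreated plants of the same species, assessed two weeks after treatment, defines the control value. Compositions, mostly aqueous emulsions, were deposited uniformly on seeded greenhouse soil beds at the tabulated rates, with a water-treated bed as reference.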

[2] = tested on: yellow foxtail; experiment: Preemergent control of plant species; format: in vivo, Setaria lutescens; conditions: Setaria, pre-emergence, 336 h; 0.25 lb/acre; read-out: percent preemergent control
In short: as §1

[3] = tested on: cotton; experiment: Preemergent control of plant species; format: in vivo, Gossypium spp.; conditions: Gossypium hirsutum, pre-emergence, 336 h; 0.25 lb/acre; read-out: percent preemergent control
In short: as §1

[4] = tested on: sugar beet; experiment: Preemergent control of plant species; format: in vivo, Beta saccharifera; conditions: Beta vulgaris, pre-emergence, 336 h; 0.25 lb/acre; read-out: percent preemergent control
In short: as §1

[5] = tested on: yellow nutsedge; experiment: Preemergent control of plant species; format: in vivo, Cyperus esculentus; conditions: Cyperus, pre-emergence, 336 h; 0.25 lb/acre; read-out: percent preemergent control
In short: as §1

[6] = tested on: rape; experiment: Preemergent control of plant species; format: in vivo, Brassica napus; conditions: Brassica napus, pre-emergence, 336 h; 0.25 lb/acre; read-out: percent preemergent control
In short: as §1

[7] = tested on: velvetleaf; experiment: Preemergent control of plant species; format: in vivo, Abutilon theophrasti; conditions: Abutilon theophrasti, pre-emergence, 336 h; 0.25 lb/acre; read-out: percent preemergent control
In short: as §1

[8] = tested on: barnyardgrass; experiment: Preemergent control of plant species; format: in vivo, Echinochloa crusgalli; conditions: Echinochloa crus-galli, pre-emergence, 336 h; 0.25 lb/acre; read-out: percent preemergent control
In short: as §1

[9] = tested on: rice; experiment: Preemergent control of plant species; format: in vivo, Oryza sativa; conditions: Oryza sativa, pre-emergence, 336 h; 0.25 lb/acre; read-out: percent preemergent control
In short: as §1

[10] = tested on: sorghum; experiment: Preemergent control of plant species; format: in vivo, Sorghum vulgare; conditions: Sorghum, pre-emergence, 336 h; 0.25 lb/acre; read-out: percent preemergent control
In short: as §1

[11] = tested on: jimsonweed; experiment: Preemergent control of plant species; format: in vivo, Datura stramonium; conditions: Datura stramonium, pre-emergence, 336 h; 0.25 lb/acre; read-out: percent preemergent control
In short: as §1

[12] = tested on: wheat; experiment: Preemergent control of plant species; format: in vivo, Triticum aestivum; conditions: Triticum aestivum, pre-emergence, 336 h; 0.25 lb/acre; read-out: percent preemergent control
In short: as §1

[13] = tested on: soybean; experiment: Preemergent control of plant species; format: in vivo, Glycine max.; conditions: Glycine max, pre-emergence, 336 h; 0.25 lb/acre; read-out: percent preemergent control
In short: as §1

[14] = tested on: corn; experiment: Preemergent control of plant species; format: in vivo, Zea mays; conditions: Zea mays, pre-emergence, 336 h; 0.25 lb/acre; read-out: percent preemergent control
In short: as §1

[15] = tested on: johnson grass; experiment: Preemergent control of plant species; format: in vivo, Sorghum halepense; conditions: Sorghum halepense, pre-emergence, 336 h; 0.25 lb/acre; read-out: percent preemergent control
In short: as §1

[16] = tested on: corn (First In); experiment: Gametocidal activity in corn, postemergent application; format: in vivo; conditions: sprayed at three leaf stage
Description: The compounds of this invention are also plant gametocides depending on the dosage and timing of application and the species of plant to which the compounds are applied. For example, certain of the compounds were sprayed on corn seedlings at the three leaf stage of growth, and the seedlings were returned to the greenhouse for subsequent growth and observation. The corn variety was "First In". The chemicals were dissolved in acetone, and the acetone solution was diluted with water containing Tween 20 wetting agent such that the final spray solution contained 50% acetone and 0.1% Tween 20 in water. […] Tabulated below are data which illustrate the use of the compounds of this invention as plant gametocides in corn.

[17] = tested on: sugar beet; experiment: Postemergent control of plant species; format: in vivo, Beta saccharifera; conditions: Beta vulgaris, post-emergence, 336 h, read-out: percent postemergent control
In short: (§2)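 Foliar spray, 2-4 leaf stage, greenhouse. Formulation: acetone solution (2x final conc.) mixed 1:1 with water + 0.1% surface active agent. ~2 wk hold, watered as needed. Readout = % growth reduction vs untreated same-species controls.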

[18] = tested on: johnson grass; experiment: Postemergent control of plant species; format: in vivo, Sorghum halepense; conditions: Sorghum halepense, post-emergence, 336 h, read-out: percent postemergent control
In short: as §2

[19] = tested on: nitrification of ammonium nitrogen; experiment: Suppression of nitrification of ammonium nitrogen in soil; conditions: 27° C.
In short: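 Soil (20 g) moistened to its 1/3 bar tension value, mixed with test chemical and incubated sealed for two weeks at 27° C. Nitrate extracted with ammonium sulfate solution and measured by nitrate-specific ion electrode; value given as % NH4-N remaining.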

[20] = tested on: crabgrass; experiment: Postemergent control of plant species; format: in vivo, Digitaria spp.; conditions: Digitaria sanguinalis, post-emergence, 336 h, read-out: percent postemergent control
In short: as §2

[21] = tested on: annual morning glory; experiment: Postemergent control of plant species; format: in vivo, Ipomoea spp.; conditions: Ipomoea, post-emergence, 336 h, read-out: percent postemergent control
In short: as §2

[22] = tested on: velvetleaf; experiment: Postemergent control of plant species; format: in vivo, Abutilon theophrasti; conditions: Abutilon theophrasti, post-emergence, 336 h, read-out: percent postemergent control
In short: as §2

[23] = tested on: barnyardgrass; experiment: Postemergent control of plant species; format: in vivo, Echinochloa crusgalli; conditions: Echinochloa crus-galli, post-emergence, 336 h, read-out: percent postemergent control
In short: as §2

[24] = tested on: cotton; experiment: Postemergent control of plant species; format: in vivo, Gossypium spp.; conditions: Gossypium hirsutum, post-emergence, 336 h, read-out: percent postemergent control
In short: as §2

[25] = tested on: rice; experiment: Postemergent control of plant species; format: in vivo, Oryza sativa; conditions: Oryza sativa, post-emergence, 336 h, read-out: percent postemergent control
In short: as §2

[26] = tested on: jimsonweed; experiment: Postemergent control of plant species; format: in vivo, Datura stramonium; conditions: Datura stramonium, post-emergence, 336 h, read-out: percent postemergent control
In short: as §2

[27] = tested on: yellow foxtail; experiment: Postemergent control of plant species; format: in vivo, Setaria lutescens; conditions: Setaria, post-emergence, 336 h, read-out: percent postemergent control
In short: as §2

[28] = tested on: soybean; experiment: Postemergent control of plant species; format: in vivo, Glycine max.; conditions: Glycine max, post-emergence, 336 h, read-out: percent postemergent control
In short: as §2

[29] = tested on: sorghum; experiment: Postemergent control of plant species; format: in vivo, Sorghum vulgare; conditions: Sorghum, post-emergence, 336 h, read-out: percent postemergent control
In short: as §2

[30] = tested on: pigweed; experiment: Postemergent control of plant species; format: in vivo, Amaranthus spp.; conditions: Amaranthus retroflexus, post-emergence, 336 h, read-out: percent postemergent control
In short: as §2

[31] = tested on: wild oats; experiment: Postemergent control of plant species; format: in vivo, Avena fatua; conditions: Avena fatua, post-emergence, 336 h, read-out: percent postemergent control
In short: as §2

[32] = tested on: corn; experiment: Postemergent control of plant species; format: in vivo, Zea mays; conditions: Zea mays, post-emergence, 336 h, read-out: percent postemergent control
In short: as §2

[33] = tested on: rape; experiment: Postemergent control of plant species; format: in vivo, Brassica napus; conditions: Brassica napus, post-emergence, 336 h, read-out: percent postemergent control
In short: as §2

[34] = tested on: wheat; experiment: Postemergent control of plant species; format: in vivo, Triticum aestivum; conditions: Triticum aestivum, post-emergence, 336 h, read-out: percent postemergent control
In short: as §2

[35] = tested on: yellow nutsedge; experiment: Postemergent control of plant species; format: in vivo, Cyperus esculentus; conditions: Cyperus, post-emergence, 336 h, read-out: percent postemergent control
In short: as §2

[36] = tested on: annual sugar beet variety (SLC03); experiment: Plant growth regulator activity, postemergence; format: in vivo; conditions: for observed effect (postemergence): 400 ppm; for minimal effective concentration: Beta vulgaris, post-emergence, 672 h, 4 weeks after spraying, read-out: Bolting Inhibition (postemergence), concentration with observed effect
Source text: Using a regular biennial variety, even a bolting-susceptible variety would require a cold treatment of around 10-16 weeks plus a hormone treatement in conjunction with specific light intensities. Thus, for a screening organism, we selected one which would consistently produce bolting on a regular schedule. The screen is run with an annual sugar beet variety (SLC03) provided by Dr. Richard J. Hecker, Fort Collins, Colo. This variety is an inbred which bolts in the 6- to 8-leaf stage without any need for vernalization. This allows the screen to be run entirely in the greenhouse with all 110 chemical compounds tested on one tray. The sugarbeets are grown in 3×3 inch square pots in a greenhouse sandy loam potting mix. The sugarbeets are sprayed with test compounds when they are 2 to 3 weeks old (2 true leaves). The compounds are dissolved in acetone and diluted with water containing Tween 20 as a wetting agent. The concentration of acetone in the final spray is 20% and the concentration of Tween 20 is 0.05 percent. The plants are examined for the appearance of a bolt 4 weeks after spraying.

[37] = tested on: cocklebur; experiment: Postemergent control of plant species; format: in vivo, Xanthium spp.; conditions: Xanthium strumarium, post-emergence, 336 h, read-out: percent postemergent control
In short: as §2

Compound	plant injury at 500 ppm [17] [%]	pest or weed control at 500 ppm [18] [%]	% NH4-N Remaining After 2 Weeks Incubation ([19]; 0.06 ppm) [%]	% NH4-N Remaining After 2 Weeks Incubation ([19]; 0.25 ppm) [%]	% NH4-N Remaining After 2 Weeks Incubation ([19]; 1 ppm) [%]	% NH4-N Remaining After 2 Weeks Incubation ([19]; 4 ppm) [%]	pest or weed control at 500 ppm [20] [%]	pest or weed control at 500 ppm [21] [%]	pest or weed control at 500 ppm [22] [%]	pest or weed control at 500 ppm [23] [%]	plant injury at 500 ppm [24] [%]	plant injury at 500 ppm [25] [%]	pest or weed control at 500 ppm [26] [%]	pest or weed control at 500 ppm [27] [%]	plant injury at 500 ppm [28] [%]	plant injury at 500 ppm [29] [%]	pest or weed control at 500 ppm [30] [%]	pest or weed control at 500 ppm [31] [%]	plant injury at 500 ppm [32] [%]	plant injury at 500 ppm [33] [%]	other results
Cc1ccn2nc(S(=O)(=O)N(C(=O)C(C)C)c3c(F)cccc3F)nc2n1 [Compound 277]																					pest or weed control at 280.212 g/ha [1]: 30%; pest or weed control at 280.212 g/ha [2]: 100%; plant injury at 280.212 g/ha [3]: 50%; plant injury at 280.212 g/ha [4]: 100%; pest or weed control at 280.212 g/ha [5]: 100%; plant injury at 280.212 g/ha [6]: 100%; pest or weed control at 280.212 g/ha [7]: 100%; pest or weed control at 280.212 g/ha [8]: 90%; plant injury at 280.212 g/ha [9]: 80%; plant injury at 280.212 g/ha [10]: 90%; pest or weed control at 280.212 g/ha [11]: 100%; plant injury at 280.212 g/ha [12]: 80%; plant injury at 280.212 g/ha [13]: 20%; plant injury at 280.212 g/ha [14]: 40%; pest or weed control at 280.212 g/ha [15]: 100%; concentration required to produce 100% control (gametocidal activity) [16]: 200 ppm
COC(=O)c1cccc(C)c1N(Cc1ccccc1)S(=O)(=O)c1nc2nc(C)cc(C)n2n1 [Compound 267]	80	75	0	0	0	11	90	90	95	35	0	40	80	70	45	65	60	0	0	80	plant injury at 500 ppm [34]: 0%; pest or weed control at 500 ppm [35]: 40%; observed effect (postemergence) [36]: stunting; minimal effective concentration [36]: 400 µg/mL
Cc1cccc(Cl)c1NS(=O)(=O)c1nc2ncc(Cl)cn2n1 [Compound 119]	50	80	23	33	69	88	0	30	70	0	0	0	90	0	0	0	0	0	30	100	pest or weed control at 500 ppm [37]: 70%; plant injury at 500 ppm [34]: 0%; pest or weed control at 500 ppm [35]: 40%; observed effect (postemergence) [36]: stunting; minimal effective concentration [36]: 400 µg/mL
